Measured values as given in PubChem BioAssay (NCI).
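The compound was tested at five concentrations on cells cultured in 96-well plates, with a 48-hour exposure period. GI50: concentration for 50% inhibition of growth. TGI marks complete inhibition of growth.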

How the values were obtained:
Test in all cases: NCI-60 cell line screen, 48 h
[1] = tested on: SF-539 CNS
[2] = tested on: NCI/ADR-RES ovarian
[3] = tested on: MCF7 breast
[4] = tested on: MDA-MB-231 breast
[5] = tested on: T-47D breast
[6] = tested on: NCI-H226 lung
[7] = tested on: RXF 393 renal
[8] = tested on: SK-MEL-5 melanoma
[9] = tested on: SNB-19 CNS
[10] = tested on: K-562 leukemia

SMILES	GI50 [1] [µM]	TGI [1] [µM]	GI50 [2] [µM]	TGI [2] [µM]	GI50 [3] [µM]	TGI [3] [µM]	GI50 [4] [µM]	TGI [4] [µM]	GI50 [5] [µM]	TGI [5] [µM]	GI50 [6] [µM]	TGI [6] [µM]	GI50 [7] [µM]	TGI [7] [µM]	GI50 [8] [µM]	TGI [8] [µM]	GI50 [9] [µM]	TGI [9] [µM]	GI50 [10] [µM]	TGI [10] [µM]
CC(=O)N1N=C2/C(=C/c3ccc(Cl)cc3)CC(C)CC2C1c1ccc(Cl)cc1 (stereo not given)	19.1	38	21.7	> 100	19.2	54.2	18.1	52.6	12.4	61.8	22	70.2	15.3	33.9	12.2	25	23.7	> 100	13.8	65.8
CCCCCCCCC(=O)OCC(CS[As](C)C)OC(=O)CCCCCCCC (stereo not given)	0.49	1.28	0.89	3.07	0.477	8.2	2.7	18.4	0.267	20.1	5.81	25.5	0.548	10.7	0.163	0.388	11.5	42.9	0.342	12.9
NC(N)=N/N=C/c1ccc(-c2ccc(-c3cc(Cl)cc(Cl)c3)s2)cc1	1.65	3.1	2	4.33	1.1	3.07	1.77	3.36	2.02	4.54	2.33	5.99	1.67	3.37	2.79	7.85	1.85	3.73	0.431	1.79
O=C1OCC2=C1C(c1ccc(Cl)c(Cl)c1)c1cc3c(cc1N2CCO)CCC3 (stereo not given)	0.147	3.32	0.123	2.3	0.157	7.2	0.747	9.36	0.25	20.6	0.248	6.47	0.141	1.46	0.181	7.22	0.324	15.2	0.204	9.71
COc1ccc(/C=C2\C=C(c3ccccc3)N(CCc3ccccc3)C2=O)cc1OC	6.68	23	9.03	68.5	4.18	57.2	4.16	17.9	3.2	28.1	4.6	30.2	3.64	15.6	9.29	94.5	5.08	21.5	23.9	> 100
Cc1cc(N(CCCl)CCCl)ccc1C=Nc1ccc2ccccc2c1	4.97	> 100	9.62	> 100	2.36	> 100	34.5	> 100	3.32	> 100	0.297	1.82	13.4	> 96	6.8	27.6	51.2	> 100	32.4	> 100
Clc1ccc(-c2cc(-c3ccccc3)nc(NCCNc3ccnc4cc(Cl)ccc34)n2)cc1	1.72	3.34	1.66	3.4	1.72	3.73	1.88	3.57	1.54	3.45	1.57	3.68	1.19	2.8	1.74	3.2	1.72	3.59	1.62	3.53
COc1cc(C(=O)Nc2cc(OC)c3ccn(C)c3c2)cc2c1C[C@]1(C)CC[C@@H](O)C(C)(C)[C@H]1O2	0.0632	2.22	2.34	14.7	0.612	15.1	1.86	16.5	1.8	14.8	7.69	> 100	0.0317	0.485	0.384	1.72	2.7	90.2	0.597	> 100
Clc1ccc(OCc2nnc3n2N=C(c2ccc(Cl)cc2Cl)CS3)cc1	17.4	34.6	16.2	37.9	27.8	69.2	14.4	33.2	38.5	> 100	17.3	38.9	13.7	31.8	16.4	31.9	28.5	> 100	32.5	> 100
O=C(c1ccco1)c1c(C(F)(F)F)n([O-])c2ccc(Cl)cc2[n+]1=O	0.37	0.924	0.819	10.3	0.443		0.376	1.41	1.41	3.55	1.43	3.24	1.38	3.83	0.538	1.64	1.58	5.67	0.116	5.1
Cn1cc(C2=C(c3cn(C)c4ccccc34)C(=O)NC2=O)c2ccccc21	0.738	5.25	1.55	> 25	0.72	> 25	> 23.5	> 25	1.8	> 25	9.19	> 25	0.825	14.5	0.873	> 25	11.5	> 25	0.235	> 25
O=C(Nc1ccc(/C=C/c2ccc(NC(=O)c3cc(S(=O)(=O)O)c4cccnc4c3O)cc2S(=O)(=O)O)c(S(=O)(=O)O)c1)c1cc(S(=O)(=O)O)c2cccnc2c1O	11.3	> 54.9	> 56.2	> 100	38.5	> 100	16.3	> 68.4	> 49.6	> 100	6.29	47.5	20.9	> 53.6	50.2	> 64.3	12.2	> 100	12	> 75.2
COc1cc2c(cc1Nc1nc(Nc3cccc(F)c3C(N)=O)c3cc[nH]c3n1)N(C(=O)CN1CCN(C(C)C)CC1)CC2	3.74	7.7	5.42	13.5	0.683	4.32	3.94	8.22	3.23	6.54	3.41	7.01	2.3	5.77	1.26	2.56	4.11	8.27	4.67	11
COc1cc(-c2cc(-c3cc(OC)c(OC)c(OC)c3)nc3nc(N)[nH]c(=O)c23)ccc1Oc1ccnc2cc(Cl)ccc12	1.16	3.18	2.14	> 100	0.762	> 100	2.59	24.7	5.22	58	13.4	35.9	2.81	9.35	2.93	13.3	6.62	> 100	0.379	> 100
COc1ccc(C2=NN(C(=O)c3cc(OC)c(OC)c(OC)c3)C(c3ccc(N(C)C)cc3)C2)cc1 (stereo not given)	0.294	1.52	0.379		0.318		1.72	8.75	0.535	> 100	1.28	> 100	0.252	0.723	0.424	4.88	1.84	> 100	0.551	> 100
O=c1oc2ccc(Br)cc2c(=O)n1-c1ccc(I)cc1F	0.403	4.04	0.355	2.32	0.709	5.87	0.327	2.54	0.279	1.52	0.66	3.36	0.396	1.93	0.246	0.642	0.363	> 70	0.389	> 100
O=C(Nc1n[nH]c2nnc(-c3cccnc3)cc12)C1CC1	2.79	> 20.8	> 25	> 25	1.07	> 25		> 25	> 12.9	> 25	2.7	> 13.9	0.428	> 17.9	4.61	> 25	> 11.9	> 25	1.74	> 25
CCCCCCCCCCCCOC1C(CNC(=O)C2OC3OC(C)(C)OC3C2NC(=O)Nc2ccc(CC(=O)NC(Cc3ccccc3)C(=O)O)cc2)OC2OC(C)(C)OC21 (stereo not given)	> 25	> 25	> 25	> 25	> 25	> 25	> 25	> 25	16.3	> 25	> 25	> 25	13.3	> 25	> 25	> 25	> 25	> 25	> 25	> 25
COc1cc(C(=O)N/N=C/c2ccc(N(C)C)cc2)cc(OC)c1OC	0.3	5.25	0.337	1.6	0.34	> 100	1.89	> 87.9	> 100	> 100	4.68	> 100	0.234		0.198	1.16	10.6	> 100	0.353	> 100
CC1OC(OC2C(OC3CCC4(C)C(CCC5(C)C4CC=C4C6CC(C)(C)CCC6(C(=O)O)CCC45C)C3(C)CO)OCC(O)C2O)C(O)C(O)C1O (stereo not given)		32.8		43.4		1.91		35.4		46.8		49.6		11.6		36.3		32.3		44.7
CC(=O)OC1CC2C3CCC4C[C@@H](NC(=O)C=C(C)C)CC[C@]4(C)C3CC[C@]2(C)[C@H]1C(C)N(C)C (stereo not given in full)	1.27	2.62	4.13	16.5	1.71	5.84	2.1	4.72	1.55	6.08	3.6	15	1.59	3.66	1.37	2.71	3.63	9.06	0.509	2.22
